We go through 17 compounds from ChEMBL document CHEMBL3804819, “2-(Quinolin-4-yloxy)acetamides Are Active against Drug-Susceptible and Drug-Resistant Mycobacterium tuberculosis Strains” (ACS Med Chem Lett, 2016).

The test system of one data set is Vero. Put plainly: Cytotoxicity against African green monkey Vero cells assessed as reduction in cell viability at 20 uM after 72 hrs by MTT assay. It counts as cell-based. As to conditions: chlorocebus sabaeus.
The subject of another data set is Acinetobacter baumannii. Put plainly: Antibacterial activity against Acinetobacter baumannii ATCC BAA 747 at 20 uM. It counts as functional, organism-based.
In a further data set the test system is Pseudomonas aeruginosa. Put plainly: Antibacterial activity against Pseudomonas aeruginosa ATCC 27853 at 20 uM. It counts as functional, organism-based.
For data set [1], the system named is Mycobacterium tuberculosis. Put plainly: Antibacterial activity against Mycobacterium tuberculosis H37Rv assessed as reduction in bacterial growth after 7 days by resazurin assay. It counts as functional. The following applies: for MIC: 168 h. On the technique in general: Resazurin is reduced to fluorescent resorufin, in cell work by metabolically active cells.

In the next data set the test system is HaCaT. Put plainly: Cytotoxicity against human HaCaT cells assessed as reduction in cell viability at 20 uM after 72 hrs by MTT assay. It counts as cell-based. In general terms: Formazan colour is commonly taken as a measure of viable cells.
For a further data set, the system named is Escherichia coli. Put plainly: Antibacterial activity against Escherichia coli ATCC 25922 at 20 uM. It counts as functional, organism-based.
For another data set, the system named is Staphylococcus aureus. Put plainly: Antibacterial activity against Staphylococcus aureus ATCC 25923 at 20 uM. It counts as functional, organism-based.
The subject of the next data set is RAW264.7. Put plainly: Cytotoxicity against mouse RAW264.7 cells assessed as decrease in cell viability at 5 uM after 72 hrs by MTT assay. It counts as cell-based. The following applies: raw264.7, 72 h.
Data set [2] deals with Mycobacterium tuberculosis. Put plainly: Antibacterial activity against Mycobacterium tuberculosis H37Rv infected in mouse RAW 264.7 cells assessed reduction in bacterial count per well at 5 uM after 3 days (reference value: 2.5 +/- 0.15 log10CFU). It counts as functional.

Converted amounts (≈) assume the structure as drawn. The source made the active and inactive calls. The rule behind the calls is not given here.

A word on the MIC: it is the lowest concentration found to suppress growth. For the compound `COc1ccc2nc(C)cc(OCC(=O)Nc3ccccc3)c2c1`, the Activity entry in the data set with Vero and with HaCaT was “Non-toxic” throughout. Besides, the outcome in the data set with Acinetobacter baumannii, in the data set with Pseudomonas aeruginosa, in the data set with Escherichia coli and in the data set with Staphylococcus aureus was inactive. In addition, the MIC in data set [1] turned out to be 0.48 µM (≈ 0.155 µg/mL).

Take `COc1ccc2nc(C)cc(O)c2c1`: the result in data set [1] was inactive.

For `COc1ccc2nc(C)cc(OCC(=O)NCc3ccccc3)c2c1`, the Activity result is on record as “Non-toxic” in the data set on Vero, “Non-toxic” in the data set on RAW264.7, 1.71 log10CFU in [2] and “Non-toxic” in the data set with HaCaT. In addition, the result in the data set with Acinetobacter baumannii, in the data set on Pseudomonas aeruginosa, in the data set on Escherichia coli and in the data set with Staphylococcus aureus was inactive. The MIC in [1] was determined as 1.85 µM (≈ 0.622 µg/mL).

Regarding `CO[C@H]1/C=C/O[C@@]2(C)Oc3c(C)c(O)c4c(O)c(c(/C=N/N5CCN(C)CC5)c(O)c4c3C2=O)NC(=O)/C(C)=C\C=C\[C@H](C)[C@H](O)[C@@H](C)[C@@H](O)[C@@H](C)[C@H](OC(C)=O)[C@@H]1C` [RIFAMPIN], in data set [2], the Activity worked out at 1.58 log10CFU.

As for `NNC(=O)c1ccncc1` [ISONIAZID], the MIC in data set [1] was determined as 1.46 µM (≈ 0.2 µg/mL).

Consider `COc1ccc2nc(C)cc(OCC(=O)Nc3ccc(Cl)cc3)c2c1`, for which the Activity result in the data set with Vero is given as “Non-toxic”; in the data set with RAW264.7 it was “Non-toxic”; in data set [2], 1.73 log10CFU; with HaCaT, “Non-toxic”. Besides, the outcome in the data set with Acinetobacter baumannii, with Pseudomonas aeruginosa, in the data set on Escherichia coli and in the data set on Staphylococcus aureus was inactive. Further, the minimal inhibitory concentration (MIC) in data set [1] was found to be 0.44 µM (≈ 0.157 µg/mL).

Regarding `COc1ccc2nc(C)cc(OCC(=O)Nc3ccccc3Cl)c2c1`, the Activity result with Vero is reported as “Non-toxic”; in the data set on RAW264.7, “Non-toxic”; in data set [2] it was 1.75 log10CFU; in the data set with HaCaT it was “Non-toxic”. Moreover, the outcome with Acinetobacter baumannii, in the data set with Pseudomonas aeruginosa, with Escherichia coli and in the data set on Staphylococcus aureus was inactive. Besides, in data set [1], the MIC was determined as 0.44 µM (≈ 0.157 µg/mL).

For `COc1ccc2c(c1)c(=O)ccn2CC(=O)Nc1ccccc1OC`, the MIC in [1] was greater than 31 µM.

With `COc1ccc2nc(C)cc(OCC(=O)Nc3cccc4ccccc34)c2c1`, the MIC in data set [1] was found to be 0.21 µM (≈ 0.0782 µg/mL).

Regarding `COc1ccc2nc(C)cc(OCC(=O)Nc3ccccc3[N+](=O)[O-])c2c1`, in data set [1], the minimum inhibitory concentration (MIC) is 6.79 µM (≈ 2.49 µg/mL).

`COc1ccc2nc(C)cc(OCC(=O)Nc3ccc([N+](=O)[O-])cc3)c2c1`: in data set [1], the MIC is 6.79 µM (≈ 2.49 µg/mL).

In the case of `COc1ccc2nc(C)cc(OCC(=O)Nc3ccc(N)cc3)c2c1`, the MIC in [1] came out at 7.39 µM (≈ 2.49 µg/mL).

On to `COc1ccc(NC(=O)COc2cc(C)nc3ccc(OC)cc23)cc1`, for which the Activity entry in the data set on Vero and in the data set with HaCaT was “Non-toxic” each time. Also, the result in the data set with Acinetobacter baumannii, in the data set with Pseudomonas aeruginosa, with Escherichia coli and in the data set with Staphylococcus aureus was inactive. For the same compound, in data set [1], the minimum inhibitory concentration (MIC) was found to be 0.44 µM (≈ 0.155 µg/mL).

For the compound `COc1ccccc1NC(=O)COc1cc(C)nc2ccccc12`, in [1], the MIC was greater than 29 µM.

For the compound `COc1ccc2nc(C)cc(OCC(=O)Nc3cccc(C(F)(F)F)c3)c2c1`, the MIC in data set [1] turned out to be 6.39 µM (≈ 2.49 µg/mL).

As for `COc1cccc(NC(=O)COc2cc(C)nc3ccc(OC)cc23)c1`, the Activity result in the data set with Vero and in the data set with HaCaT was “Non-toxic” throughout. Besides, the result in the data set on Acinetobacter baumannii, with Pseudomonas aeruginosa, in the data set on Escherichia coli and in the data set on Staphylococcus aureus was inactive. For the same compound, the MIC in data set [1] is 0.88 µM (≈ 0.31 µg/mL).

For `CCc1cccc(C)c1NC(=O)COc1cc(C)nc2ccc(OC)cc12`, in [1], the MIC is greater than 27 µM.
